The text below walks through data of US20240109917A1 (ACTELION PHARMACEUTICALS LTD, priority 2020, published 2024).

Read-outs that look alike come from different tables or passages of the source.

Experiment [1] concerns the target His6-TEV-PDGFRβ (557-1016) (Homo sapiens (Human), UniProt P09619). Put plainly: PDGFRβ HTRF Assay. The class given is biochemical. As to conditions: read-out: PDGFR HTRF IC50. In a few lines: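 Human PDGFRβ (557-1016) pre-incubated with compound for 30 min at RT in pH 7.5 HEPES/MgCl2/EGTA/Brij-35/DTT buffer. Reaction started with ATP and TK-biotin peptide, run 3 h at RT, then quenched with EDTA-containing Eu-cryptate antibody/streptavidin-XL665. HTRF 665/620 nm ratio read after 60 min; percent inhibition relative to DMSO and 10 μM imatinib controls.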
Background: TR-FRET usually uses a lanthanide donor and a delayed reading to cut background.

Experiment [2] concerns the target Tb-labeled inactive PDGFRβ (Homo sapiens (Human), UniProt P09619). Put plainly: PDGFRβ LanthaScreen Assay. The format is binding. The note with it: read-out: PDGFR Lantha IC50.
For experiment [3], the target named is PDGFRβ (Rattus norvegicus (Rat), UniProt Q05030). The experiment is described as follows: PDGFRβ Cellular Assay (PDGFRb P-Y751 HTRF in A10 cells stimulated with PDGF-BB). The format is cell-based. In a few lines:
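Rat A10 cells, plated overnight, were treated with compound for 3 hours, then stimulated with PDGF-BB (working stock 100 ng/mL in 10% FBS medium). After lysis, PDGFRβ P-Y751 was detected by HTRF.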

Chain of PDGFRβ (Q05030 32-1097): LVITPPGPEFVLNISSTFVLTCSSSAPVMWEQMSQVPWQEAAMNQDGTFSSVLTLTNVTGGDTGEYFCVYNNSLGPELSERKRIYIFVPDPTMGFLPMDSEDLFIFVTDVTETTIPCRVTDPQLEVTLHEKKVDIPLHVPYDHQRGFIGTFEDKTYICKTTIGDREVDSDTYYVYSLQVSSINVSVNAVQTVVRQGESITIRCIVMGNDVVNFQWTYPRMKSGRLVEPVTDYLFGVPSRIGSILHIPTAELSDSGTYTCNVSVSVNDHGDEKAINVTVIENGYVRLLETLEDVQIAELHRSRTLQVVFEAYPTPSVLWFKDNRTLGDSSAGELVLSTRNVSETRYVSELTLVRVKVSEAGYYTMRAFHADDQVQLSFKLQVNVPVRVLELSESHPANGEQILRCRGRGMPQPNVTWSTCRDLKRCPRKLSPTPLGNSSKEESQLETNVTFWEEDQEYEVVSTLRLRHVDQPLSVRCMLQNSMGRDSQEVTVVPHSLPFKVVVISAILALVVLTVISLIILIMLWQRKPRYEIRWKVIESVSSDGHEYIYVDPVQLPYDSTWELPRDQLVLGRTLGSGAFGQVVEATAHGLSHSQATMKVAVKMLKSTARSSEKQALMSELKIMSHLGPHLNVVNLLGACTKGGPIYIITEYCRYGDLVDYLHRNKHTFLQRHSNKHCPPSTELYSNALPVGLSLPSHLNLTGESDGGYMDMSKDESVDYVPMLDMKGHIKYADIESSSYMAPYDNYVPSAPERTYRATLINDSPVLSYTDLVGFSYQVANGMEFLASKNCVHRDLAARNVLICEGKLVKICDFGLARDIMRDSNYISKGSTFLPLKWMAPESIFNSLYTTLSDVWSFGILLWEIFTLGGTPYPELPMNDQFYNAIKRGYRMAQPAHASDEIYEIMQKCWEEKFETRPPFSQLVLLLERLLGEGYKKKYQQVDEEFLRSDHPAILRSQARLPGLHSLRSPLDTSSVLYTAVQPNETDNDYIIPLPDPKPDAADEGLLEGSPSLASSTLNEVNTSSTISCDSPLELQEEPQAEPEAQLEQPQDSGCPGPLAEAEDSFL
Chain of Tb-labeled inactive PDGFRβ (P09619 33-1106): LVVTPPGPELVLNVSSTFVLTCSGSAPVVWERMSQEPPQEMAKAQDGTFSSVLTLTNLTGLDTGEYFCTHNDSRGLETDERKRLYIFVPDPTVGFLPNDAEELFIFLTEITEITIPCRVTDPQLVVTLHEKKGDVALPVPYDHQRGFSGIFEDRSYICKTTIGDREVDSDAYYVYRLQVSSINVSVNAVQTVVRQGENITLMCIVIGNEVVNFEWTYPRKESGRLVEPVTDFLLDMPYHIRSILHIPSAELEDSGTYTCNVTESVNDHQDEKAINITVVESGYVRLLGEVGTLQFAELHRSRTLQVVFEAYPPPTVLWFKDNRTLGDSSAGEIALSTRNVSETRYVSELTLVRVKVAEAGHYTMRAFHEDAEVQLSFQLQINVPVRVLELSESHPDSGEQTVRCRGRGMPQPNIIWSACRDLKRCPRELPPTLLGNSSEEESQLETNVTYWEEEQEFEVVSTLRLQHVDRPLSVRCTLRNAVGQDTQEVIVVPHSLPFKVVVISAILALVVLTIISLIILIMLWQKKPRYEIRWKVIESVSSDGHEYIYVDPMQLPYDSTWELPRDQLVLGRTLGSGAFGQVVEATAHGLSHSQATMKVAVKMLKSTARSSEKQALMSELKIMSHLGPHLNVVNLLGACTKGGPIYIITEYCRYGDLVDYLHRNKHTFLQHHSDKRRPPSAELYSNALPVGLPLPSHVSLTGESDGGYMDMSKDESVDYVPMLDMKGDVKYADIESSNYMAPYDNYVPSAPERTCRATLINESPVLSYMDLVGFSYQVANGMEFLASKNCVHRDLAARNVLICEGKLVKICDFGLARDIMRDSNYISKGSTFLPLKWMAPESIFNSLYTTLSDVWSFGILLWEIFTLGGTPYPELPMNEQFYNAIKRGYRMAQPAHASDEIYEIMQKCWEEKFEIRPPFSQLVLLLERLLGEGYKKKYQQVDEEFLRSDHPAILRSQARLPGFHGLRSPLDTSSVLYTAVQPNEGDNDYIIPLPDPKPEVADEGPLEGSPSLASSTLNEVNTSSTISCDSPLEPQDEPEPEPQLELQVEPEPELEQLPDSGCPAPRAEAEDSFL
Chain of His6-TEV-PDGFRβ (557-1016) (P09619 557-1016): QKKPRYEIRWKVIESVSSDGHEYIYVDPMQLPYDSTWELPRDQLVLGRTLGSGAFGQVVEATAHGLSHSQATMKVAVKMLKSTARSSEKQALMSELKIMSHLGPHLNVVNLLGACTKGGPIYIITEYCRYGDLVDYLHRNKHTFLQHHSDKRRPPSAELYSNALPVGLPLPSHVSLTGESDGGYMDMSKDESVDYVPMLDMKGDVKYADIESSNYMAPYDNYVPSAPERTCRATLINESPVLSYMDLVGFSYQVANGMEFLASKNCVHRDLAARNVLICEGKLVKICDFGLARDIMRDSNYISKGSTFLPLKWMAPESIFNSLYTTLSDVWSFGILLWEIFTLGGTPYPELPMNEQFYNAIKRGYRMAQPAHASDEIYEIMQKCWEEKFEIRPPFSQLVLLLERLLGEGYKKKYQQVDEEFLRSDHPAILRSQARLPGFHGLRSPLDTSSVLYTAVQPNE

For orientation: IC50 means the point on the concentration scale where inhibition reaches its midpoint. Turning to `Cc1ncc(C(=O)NCCN2CCCC23CC3)cc1NC(=O)c1cnn2cc(-c3cnn(C)c3)sc12` [Example 2, N-(5-((2-(4-azaspiro[2.4]heptan-4-yl)ethyl)carbamoyl)-2-methylpyridin-3-yl)-2-(1-methyl-1H-pyrazol-4-yl)pyrazolo[5,1-b]thiazole-7-carboxamide], the values for the IC50 in experiment [1], in experiment [2] and in experiment [3] (read-out: PDGFR Cellular IC50) were 0.7 nM, 11.5 nM and 30.2 nM, respectively.

As for `Cc1ncc(C(=O)NCCN2CCCC23CCC3)cc1NC(=O)c1cnn2cc(-c3cnn(C)c3)sc12` [Example 3, N-(5-((2-(5-azaspiro[3.4]octan-5-yl)ethyl)carbamoyl)-2-methylpyridin-3-yl)-2-(1-methyl-1H-pyrazol-4-yl)pyrazolo[5,1-b]thiazole-7-carboxamide], the IC50 in experiment [1] was 0.6 nM; in experiment [2], 4 nM; in experiment [3] (read-out: PDGFR Cellular IC50), 6 nM.

In the case of `Cc1ncc(NC(=O)CCN2CCCC2(C)C)cc1NC(=O)c1cnn2cc(-c3cnn(C)c3)sc12` [Example 42, N-(5-(3-(2,2-dimethylpyrrolidin-1-yl)propanamido)-2-methyl-pyridin-3-yl)-2-(1-methyl-1H-pyrazol-4-yl)pyrazolo[5,1-b]thiazole-7-carboxamide], the IC50 in experiment [1] is 0.28 nM; in experiment [2], 3.8 nM; in experiment [3] (read-out: PDGFR Cellular IC50), 5.9 nM.

Regarding `Cc1ncc(NC(=O)CCN2CC3CCC2CC3)cc1NC(=O)c1cnn2cc(-c3cnn(C)c3)sc12` [Example 43, N-(5-(3-(2-azabicyclo[2.2.2]octan-2-yl)propanamido)-2-methylpyridin-3-yl)-2-(1-methyl-1H-pyrazol-4-yl)pyrazolo[5,1-b]thiazole-7-carboxamide], the figures for the IC50 in experiment [1], in experiment [2] and in experiment [3] (read-out: PDGFR Cellular IC50) were 0.23 nM, 3.9 nM and 7.2 nM, respectively.

In the case of `Cc1ncc(NC(=O)CN2C3CCC2COC3)cc1NC(=O)c1cnn2cc(-c3cnn(C)c3)sc12` [Example 44, N-(5-(2-(3-oxa-8-azabicyclo[3.2.1]octan-8-yl)acetamido)-2-methylpyridin-3-yl)-2-(1-methyl-1H-pyrazol-4-yl)pyrazolo[5,1-b]thiazole-7-carboxamide], the IC50 in experiment [1] worked out at 1.3 nM; in experiment [2], 11.6 nM; in experiment [3] (read-out: PDGFR Cellular IC50), 23.7 nM.

With `Cc1ncc(NC(=O)CN2CC3CC(C2)O3)cc1NC(=O)c1cnn2cc(-c3cnn(C)c3)sc12` [Example 45, N-(5-(2-(6-oxa-3-azabicyclo[3.1.1]heptan-3-yl)acetamido)-2-methylpyridin-3-yl)-2-(1-methyl-1H-pyrazol-4-yl)pyrazolo[5,1-b]thiazole-7-carboxamide], the values for the IC50 in experiment [1], in experiment [2] and in experiment [3] (read-out: PDGFR Cellular IC50) were 1 nM, 31 nM and 75.4 nM, respectively.

For the compound `Cc1ncc(NC(=O)CN2CCC3(CC2)COC3)cc1NC(=O)c1cnn2cc(-c3cnn(C)c3)sc12` [Example 46, N-(5-(2-(2-oxa-7-azaspiro[3.5]nonan-7-yl)acetamido)-2-methylpyridin-3-yl)-2-(1-methyl-1H-pyrazol-4-yl)pyrazolo[5,1-b]thiazole-7-carboxamide], the IC50 came out at 3 nM in experiment [1], 89 nM in experiment [2] and 85.5 nM in experiment [3] (read-out: PDGFR Cellular IC50).

Take `Cc1ncc(NC(=O)CN2CCOCC23CC3)cc1NC(=O)c1cnn2cc(-c3cnn(C)c3)sc12` [Example 47, N-(5-(2-(7-oxa-4-azaspiro[2.5]octan-4-yl)acetamido)-2-methylpyridin-3-yl)-2-(1-methyl-1H-pyrazol-4-yl)pyrazolo[5,1-b]thiazole-7-carboxamide]: the IC50 in experiment [1] is 0.9 nM; in experiment [2] it was 16.5 nM; in experiment [3] (read-out: PDGFR Cellular IC50), 37.2 nM.

Take `Cc1ncc(NC(=O)CN2Cc3cccnc3C2)cc1NC(=O)c1cnn2cc(-c3cnn(C)c3)sc12` [Example 48, N-(5-(2-(5H-pyrrolo[3,4-b]pyridin-6 (7H)-yl)acetamido)-2-methylpyridin-3-yl)-2-(1-methyl-1H-pyrazol-4-yl)pyrazolo[5,1-b]thiazole-7-carboxamide]: the values for the IC50 in experiment [1], in experiment [2] and in experiment [3] (read-out: PDGFR Cellular IC50) were 1.4 nM, 16.8 nM and 49.3 nM, respectively.

As to `Cc1ncc(NC(=O)CN2CCCC(F)(F)C2)cc1NC(=O)c1cnn2cc(-c3cnn(C)c3)sc12` [Example 49, N-(5-(2-(3,3-difluoropiperidin-1-yl)acetamido)-2-methylpyridin-3-yl)-2-(1-methyl-1H-pyrazol-4-yl)pyrazolo[5,1-b]thiazole-7-carboxamide], the concentration for half-maximal inhibition (IC50) in experiment [1] is 0.4 nM; in experiment [2] it was 2.1 nM; in experiment [3] (read-out: PDGFR Cellular IC50), 4.7 nM.

For the compound `Cc1ncc(NC(=O)CN2CCOC[C@H]2C)cc1NC(=O)c1cnn2cc(-c3cnn(C)c3)sc12` [Example 50, (R)-2-(1-methyl-1H-pyrazol-4-yl)-N-(2-methyl-5-(2-(3-methylmorpholino)acetamido)pyridin-3-yl)pyrazolo[5,1-b]thiazole-7-carboxamide], the IC50 was found to be 0.6 nM in experiment [1], 14 nM in experiment [2] and 27.3 nM in experiment [3] (PDGFR Cellular IC50).

Turning to `Cc1ncc(NC(=O)CN2[C@H](C)COC[C@H]2C)cc1NC(=O)c1cnn2cc(-c3cnn(C)c3)sc12` [Example 51, N-(5-(2-((3R,5R)-3,5-dimethylmorpholino)acetamido)-2-methylpyridin-3-yl)-2-(1-methyl-1H-pyrazol-4-yl)pyrazolo[5,1-b]thiazole-7-carboxamide], the IC50 was determined as 0.4 nM in experiment [1], 4.8 nM in experiment [2] and 6.8 nM in experiment [3] (read-out: PDGFR Cellular IC50).

Consider `Cc1ncc(NC(=O)CN2C[C@H](C)O[C@@H](C)C2)cc1NC(=O)c1cnn2cc(-c3cnn(C)c3)sc12` [Example 52, N-(5-(2-((2S,6S)-2,6-dimethylmorpholino)acetamido)-2-methylpyridin-3-yl)-2-(1-methyl-1H-pyrazol-4-yl)pyrazolo[5,1-b]thiazole-7-carboxamide], for which the IC50 turned out to be 0.3 nM in experiment [1], 0.8 nM in experiment [2] and 0.9 nM in experiment [3] (read-out: PDGFR Cellular IC50).

Take `Cc1ncc(NC(=O)CN2C[C@@H](C)O[C@@H](C)C2)cc1NC(=O)c1cnn2cc(-c3cnn(C)c3)sc12` [Example 53, N-(5-(2-((2R,6S)-2,6-dimethylmorpholino)acetamido)-2-methylpyridin-3-yl)-2-(1-methyl-1H-pyrazol-4-yl)pyrazolo[5,1-b]thiazole-7-carboxamide]: the IC50 was 0.3 nM in experiment [1], 2.7 nM in experiment [2] and 4.3 nM in experiment [3] (read-out: PDGFR Cellular IC50).

Turning to `Cc1ncc(NC(=O)CN2CCO[C@H](C)C2)cc1NC(=O)c1cnn2cc(-c3cnn(C)c3)sc12` [Example 54, (R)-2-(1-methyl-1H-pyrazol-4-yl)-N-(2-methyl-5-(2-(2-methylmorpholino)acetamido)pyridin-3-yl)pyrazolo[5,1-b]thiazole-7-carboxamide], the values for the IC50 in experiment [1], in experiment [2] and in experiment [3] (read-out: PDGFR Cellular IC50) were 0.5 nM, 12.8 nM and 11.4 nM, respectively.

Take `Cc1ncc(NC(=O)CN2CCOCC2)cc1NC(=O)c1cnn2cc(-c3cnn(C)c3)sc12` [Example 55, 2-(1-methyl-1H-pyrazol-4-yl)-N-(2-methyl-5-(2-morpholinoacetamido)pyridin-3-yl)pyrazolo[5,1-b]thiazole-7-carboxamide]: the values for the IC50 in experiment [1], in experiment [2] and in experiment [3] (read-out: PDGFR Cellular IC50) were 1.5 nM, 40.6 nM and 87.1 nM, respectively.

In the case of `Cc1ncc(NC(=O)CN2CCc3c(cnn3C)C2)cc1NC(=O)c1cnn2cc(-c3cnn(C)c3)sc12` [Example 57, 2-(1-methyl-1H-pyrazol-4-yl)-N-(2-methyl-5-(2-(1-methyl-6,7-dihydro-1H-pyrazolo[4,3-c]pyridin-5 (4H)-yl)acetamido)pyridin-3-yl)pyrazolo[5,1-b]thiazole-7-carboxamide], the figures for the IC50 in experiment [1], in experiment [2] and in experiment [3] (read-out: PDGFR Cellular IC50) were 1 nM, 10.8 nM and 124 nM, respectively.

`Cc1ncc(NC(=O)CN2CCc3ncsc3C2)cc1NC(=O)c1cnn2cc(-c3cnn(C)c3)sc12` [Example 58, N-(5-(2-(6,7-dihydrothiazolo[5,4-c]pyridin-5 (4H)-yl)acetamido)-2-methylpyridin-3-yl)-2-(1-methyl-1H-pyrazol-4-yl)pyrazolo[5,1-b]thiazole-7-carboxamide]: the concentration for half-maximal inhibition (IC50) in experiment [1] came out at 1 nM; in experiment [2], 12.5 nM; in experiment [3] (read-out: PDGFR Cellular IC50), 52.9 nM.

Take `Cc1ncc(NC(=O)CN2CCS(=O)(=O)CC2)cc1NC(=O)c1cnn2cc(-c3cnn(C)c3)sc12` [Example 59, N-(5-(2-(1,1-dioxidothiomorpholino)acetamido)-2-methylpyridin-3-yl)-2-(1-methyl-1H-pyrazol-4-yl)pyrazolo[5,1-b]thiazole-7-carboxamide]: the IC50 is 2.1 nM in experiment [1], 93.9 nM in experiment [2] and greater than 3000 nM in experiment [3] (read-out: PDGFR Cellular IC50).

Take `Cc1ncc(NC(=O)CN2CCc3cccnc3C2)cc1NC(=O)c1cnn2cc(-c3cnn(C)c3)sc12` [Example 60, N-(5-(2-(5,6-dihydro-1,7-naphthyridin-7 (8H)-yl)acetamido)-2-methylpyridin-3-yl)-2-(1-methyl-1H-pyrazol-4-yl)pyrazolo[5,1-b]thiazole-7-carboxamide]: the concentration for half-maximal inhibition (IC50) was found to be 1 nM in experiment [1], 18.3 nM in experiment [2] and 50.4 nM in experiment [3] (read-out: PDGFR Cellular IC50).

With `Cc1ncc(NC(=O)CN2CCc3scnc3C2)cc1NC(=O)c1cnn2cc(-c3cnn(C)c3)sc12` [Example 61, N-(5-(2-(6,7-dihydrothiazolo[4,5-c]pyridin-5 (4H)-yl)acetamido)-2-methylpyridin-3-yl)-2-(1-methyl-1H-pyrazol-4-yl)pyrazolo[5,1-b]thiazole-7-carboxamide], the 50% inhibitory concentration (IC50) was 0.8 nM in experiment [1], 12.3 nM in experiment [2] and 43.6 nM in experiment [3] (read-out: PDGFR Cellular IC50).
